Earlier results as cited in article PMC6972991 (Chemistry (Weinheim an Der Bergstrasse, Germany), 2019).

pKa: ≈ 4
SMILES: O=S(=O)(O)c1ccccc1 [benzenesulfonic acid]
